Measurements from PubChem BioAssay (NCI).
Several values for one entry are separate records, joined by “and”; a condition that tells them apart may be missing. Equal values may be shown once.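 96-well plates; 48 h exposure; 5 concentrations. Endpoints by linear interpolation between flanking doses. Not reached: highest tested concentration assigned. GI50 is the concentration that inhibits growth by half. Definition used: TGI = concentration required for complete inhibition of growth.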

Legend:
Assay in all cases: NCI-60 cell line screen, 48 h
A549 NSCLC = tested on: A549 NSCLC
ACHN renal = tested on: ACHN renal
EKVX NSCLC = tested on: EKVX NSCLC
MCF7 breast = tested on: MCF7 breast
MDA-MB-435 = tested on: MDA-MB-435
NCI-H226 lung = tested on: NCI-H226 lung
NCI-H23 lung = tested on: NCI-H23 lung
NCI-H460 lung = tested on: NCI-H460 lung
SW-620 colon = tested on: SW-620 colon
TK-10 renal = tested on: TK-10 renal

Row | SMILES | GI50 (A549 NSCLC) [µM] | TGI (A549 NSCLC) [µM] | GI50 (ACHN renal) | TGI (ACHN renal) [µM] | GI50 (EKVX NSCLC) | TGI (EKVX NSCLC) [µM] | GI50 (MCF7 breast) | TGI (MCF7 breast) [µM] | GI50 (MDA-MB-435) | TGI (MDA-MB-435) | GI50 (NCI-H226 lung) [µM] | TGI (NCI-H226 lung) [µM] | GI50 (NCI-H23 lung) | TGI (NCI-H23 lung) | GI50 (NCI-H460 lung) [µM] | TGI (NCI-H460 lung) [µM] | GI50 (SW-620 colon) [µM] | TGI (SW-620 colon) [µM] | GI50 (TK-10 renal) [µM] | TGI (TK-10 renal) [µM]
1 | O=C(Nc1ccccc1Cl)c1ccc(NC2=C(Cl)C(=O)N(C3CCCCC3)C2=O)cc1 | 13.3 | 32.9 | 10.6 µM | 30.4 | 24.3 µM | 53.1 | 9.82 µM | 36 | 9.61 µM | 44.1 µM | 9.4 | 31.8 | 4.92 µM | 21.2 µM | 19.7 | 52.1 | 10.3 | 30.2 | 20.6 | 44.3
2 | O=C(Nc1cccc(C(F)(F)F)c1)c1ccc(NC2=C(Cl)C(=O)N(Cc3ccccc3)C2=O)cc1 | 34.1 | 84.9 | 15.3 µM | 29.5 | 23.5 µM | 54.4 | 2.02 µM | 4.54 | 6.92 µM | 20.5 µM | 16 | 35.8 | 4.13 µM | 13.4 µM | 5.91 | 57 | 5.11 | > 100 | 17.9 | 37.4
3 | CCCCc1n(Cc2ccc3ccccc3n2)cc[n+]1Cc1ccc2ccccc2n1 | 4.75 | 18.6 | 17 µM | 42 | 2.58 µM | 20.2 | 0.807 µM | 11.2 | 0.71 µM | 7.78 µM | 2.26 | 11.8 | 0.499 µM | 8.54 µM | 1.87 | 11.3 | 2.56 | 13.7 | 2.5 | 10.3
4 | Cc1ccc2[nH]c(O)c(N=Nc3ccccc3[N+](=O)[O-])c2c1 |  | > 100 |  |  |  | 57.3 |  | > 100 |  | > 100 µM |  | 47.5 |  | 77.1 µM |  | > 100 |  | > 100 |  | 64.5
5 | COc1ccc(C2CC(c3ccc(OC)cc3O)=NN2c2ccc(S(N)(=O)=O)cc2)cc1 (centres undefined) | 6.36 | > 100 | 5.86 µM | > 100 | 4.48 µM | > 100 | 4.11 µM | > 100 | 6.56 µM | > 100 µM | 11.7 | > 100 | 20.5 µM | > 100 µM | 6.74 | 39.2 | 16 | > 100 | 7.18 | > 100
6 | COc1ccc(CNCCCN2C(=O)c3ccc4c5c(ccc(c35)C2=O)C(=O)N(CCCNCc2ccc(OC)c(OC)c2OC)C4=O)c(OC)c1OC | 0.103 | 0.231 | 0.107 µM | 0.257 | 0.0929 µM | 0.176 | 0.0811 µM | 0.219 | 0.0925 µM | 0.177 µM | 0.337 | 1.1 | 0.0936 µM | 0.201 µM | 0.121 | 0.336 | 0.0932 | 0.225 | 0.0981 | 0.269
7 | Cc1ccc2[nH]c(C(=O)NN3C(=O)C(C)SC34CCC(C)CC4)c(-c3ccccc3)c2c1 (centres undefined) | 14.3 | 31.8 | 19.9 µM | 44.2 | 19.6 µM | 56.1 | 17.5 µM | > 100 | 16.5 µM | 35.4 µM | 17.3 | 35.5 | 15.2 µM | 32 µM | 15.7 | 43.9 | 31.4 | 82.6 | 14.2 | 29.6
8 | COc1ccccc1NC(=O)CC(=O)n1nc(C)c(N=Nc2ccccc2Cl)c1C |  | > 100 |  | > 100 |  | > 100 |  | > 100 |  | > 100 µM |  | > 100 |  | > 44.7 µM |  | > 100 |  | > 100 |  | > 100
9 | CC[C@]12C=CCN3CC[C@@]4(c5ccc(OC)cc5N(C)[C@H]4[C@@](O)(C(=O)OC)[C@@H]1OC(=O)CCC(=O)O[C@H]1CC[C@H]4[C@@H]5CC[C@H]6CC(=O)CC[C@]6(C)[C@H]5CC[C@]14C)[C@@H]32 | 4.19 | 35.3 | 3.01 µM | > 100 | 1.78 µM | > 100 | 2.42 µM | > 100 | 2.89 µM | > 100 µM | 3.84 | > 100 | 3.54 µM | > 100 µM | 2.76 | 10.6 | 3.05 | 13.2 | 2.55 | 17.8
10 | O=c1cc(-c2ccccc2)oc2c1ccc1ccccc12 | 23.8 | > 100 | 17.6 µM | 90 |  |  | 13.9 µM | > 100 | 30 µM | > 100 µM | 18.9 | 59.5 | 32.6 µM | > 100 µM | 28.6 | > 100 | 49.2 | > 100 | 28.2 | 65
11 | CCn1c(SCC(=O)Nc2cc(C(F)(F)F)ccc2Cl)nc2ccccc2c1=O |  |  | 22.6 µM | > 100 |  |  | 94.4 µM | > 100 | > 100 µM | > 100 µM | 29.9 | > 100 | 46.9 µM | > 100 µM | 30.5 | > 100 | 53.4 | > 100 | 23.7 | 66.2
12 | CCN(CC)CCCNc1n[n+]([O-])c2ccccc2[n+]1[O-] |  | 39.7 |  | 53.1 |  |  |  | 42.4 |  | > 100 µM |  | 85.6 |  | 46.9 µM |  | 27.4 |  | > 100 |  | 39
13 | COc1cc2c(c(OC)c1OC)-c1c(c3ccc([N+](=O)[O-])cc3c(=O)n1CCCBr)C2=O | 62.8 | > 100 |  |  | > 100 µM | > 100 | 0.0551 µM | 0.439 | > 100 µM | > 100 µM | 13.5 | 68.5 | 68.9 µM | > 100 µM | 8.53 | > 100 | 18.2 | > 100 | 23.5 | 90.2
14 | CCOC(=O)c1c(-c2ccc(OC)c(O)c2)c(C#N)c(=S)n(C2OC(COC(C)=O)C(OC(C)=O)C(OC(C)=O)C2OC(C)=O)c1-c1ccccc1 (centres undefined) |  | > 100 | 36.6 µM and > 100 µM | > 100 | 45.4 µM and > 100 µM | > 100 | 28.2 µM and > 100 µM | > 100 | 31.7 µM and 67.9 µM | 91.6 µM and > 100 µM |  | > 100 | 22.2 µM and > 100 µM | 60.3 µM and > 100 µM |  | > 100 |  | > 100 |  | 
